How the values were obtained:
[1] = 102 kPa, Liquid, Vibrating tube method
[2] = xn = mol fraction of the nth substance listed; conditions: 102 kPa, Liquid, Vibrating tube method
[3] = mn = molality of the nth substance listed, in mol/kg; conditions: 102 kPa, Liquid, Vibrating tube method

CO [methanol]
[1]
Conditions	mass density [kg/m3]
293.15 K	791.34
298.15 K	786.68
303.15 K	781.96
308.15 K	777.21

CCCCO [butan-1-ol]
[1]
Conditions	mass density [kg/m3]
293.15 K	809.84
298.15 K	806.03
303.15 K	802.19
308.15 K	798.38

CCCCO [butan-1-ol] + CO
mass density [kg/m3], [2]
Conditions	293.15 K	298.15 K	303.15 K	308.15 K
x1 = 0.05	793	788.48	783.92	779.32
x1 = 0.1	794.55	790.15	785.69	781.19
x1 = 0.15	795.82	791.52	787.15	782.74
x1 = 0.2	797.09	792.81	788.52	784.19
x1 = 0.25	798.29	794.06	789.82	785.52
x1 = 0.3	799.4	795.23	791.01	786.78
x1 = 0.4	801.48	797.4	793.26	789.13
x1 = 0.5	803.28	799.27	795.21	791.18
x1 = 0.6	804.87	800.94	796.94	792.99
x1 = 0.7	806.38	802.48	798.57	794.64
x1 = 0.8	807.62	803.77	799.91	796.04
x1 = 0.9	808.83	804.99	801.12	797.29
x1 = 1	809.84	806.03	802.19	798.38

[Cd+2].[I-].[I-] [cadmium iodide (CdI2)] + CO
mass density [kg/m3], [3]
Conditions	m1 = 0.004	m1 = 0.005	m1 = 0.006	m1 = 0.008	m1 = 0.01	m1 = 0.02	m1 = 0.05	m1 = 0.08
293.15 K	792.58	792.87	793.02	793.63	794.17	797.09	805.07	811.5
298.15 K	787.92	788.22	788.45	789.1	789.72	792.37	800.28	806.75
303.15 K	783.18	783.49	783.71	784.31	784.72	787.65	795.4	801.87
308.15 K	778.43	778.74	778.86	779.43	780.04	782.94	790.79	797.4

[Cd+2].[I-].[I-] [cadmium iodide (CdI2)] + CCCCO
mass density [kg/m3], [3]
Conditions	m1 = 0.004	m1 = 0.005	m1 = 0.006	m1 = 0.008	m1 = 0.01	m1 = 0.02	m1 = 0.05	m1 = 0.08
293.15 K	811.57	811.75	811.98	812.48	813.03	815.24	822.26	830.17
298.15 K	807.62	807.92	808.19	808.94	809.67	811.39	819.27	826.26
303.15 K	803.74	804.06	804.49	805.19	805.87	807.51	814.48	822.32
308.15 K	799.64	800.2	800.59	801.3	802.1	803.62	810.6	818.39

CO [methanol] + CCCCO
[2], x2 = 0
Conditions	mass density [kg/m3]
293.15 K	791.34
298.15 K	786.68
303.15 K	781.96
308.15 K	777.21

From the NIST ThermoML archive (doi:10.1021/acs.jced.5b00366)
